# The source made the active and inactive calls.
# Experiments:
# [1] = tested on: HEK293; experiment: cells; assay type: functional, cell-based; conditions: Homo sapiens
# [2] = target: T1, Nucleotide-binding oligomerization domain-containing protein 1 (Homo sapiens, UniProt Q9Y239); experiment: blockers of NOD1 pathway activity – revised, SAR follow-up (AID 2333); assay type: functional
# T1 sequence (Q9Y239 whole entry): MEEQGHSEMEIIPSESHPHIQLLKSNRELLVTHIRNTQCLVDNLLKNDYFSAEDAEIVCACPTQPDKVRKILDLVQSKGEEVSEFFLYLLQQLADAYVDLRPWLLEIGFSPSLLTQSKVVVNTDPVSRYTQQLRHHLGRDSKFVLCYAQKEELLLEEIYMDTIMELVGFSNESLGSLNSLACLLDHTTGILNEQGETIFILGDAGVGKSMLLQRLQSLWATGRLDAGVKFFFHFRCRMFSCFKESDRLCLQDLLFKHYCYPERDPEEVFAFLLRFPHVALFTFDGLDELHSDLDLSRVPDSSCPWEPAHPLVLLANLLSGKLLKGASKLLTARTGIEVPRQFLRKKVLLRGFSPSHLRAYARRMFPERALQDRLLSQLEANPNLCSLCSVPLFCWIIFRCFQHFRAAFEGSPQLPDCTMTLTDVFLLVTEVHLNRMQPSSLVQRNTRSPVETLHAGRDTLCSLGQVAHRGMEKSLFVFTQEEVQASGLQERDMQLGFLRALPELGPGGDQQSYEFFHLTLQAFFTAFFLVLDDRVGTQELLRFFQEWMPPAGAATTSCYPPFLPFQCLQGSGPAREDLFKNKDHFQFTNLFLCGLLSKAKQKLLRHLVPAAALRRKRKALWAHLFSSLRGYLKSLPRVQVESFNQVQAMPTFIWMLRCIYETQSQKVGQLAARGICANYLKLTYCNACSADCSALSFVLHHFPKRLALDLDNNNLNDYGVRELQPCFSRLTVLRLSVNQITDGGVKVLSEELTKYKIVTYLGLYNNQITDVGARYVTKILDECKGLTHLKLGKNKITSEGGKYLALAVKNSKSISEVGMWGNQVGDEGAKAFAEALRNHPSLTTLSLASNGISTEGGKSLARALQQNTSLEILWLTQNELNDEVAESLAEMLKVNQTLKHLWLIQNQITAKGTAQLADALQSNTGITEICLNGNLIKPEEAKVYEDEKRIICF
# [3] = tested on: HEK293; experiment: cells; conditions: Homo sapiens
# [4] = tested on: HEK293; experiment: NOD2 signaling inhibitors in MDP-stimulated cells, cell-based, uHTS, luminescence (AID 2001); assay type: functional; conditions: Homo sapiens
# [5] = tested on: HEK293; experiment: cells; assay type: functional, cell-based; conditions: Homo sapiens; remark: listed apart in the source
# [6] = target: Nucleotide-binding oligomerization domain-containing protein 2 (Homo sapiens, UniProt Q9HC29); experiment: PubChem AID 2334; assay type: functional
# [7] = tested on: HEK293; experiment: inhibition of NOD1-driven NF-kB reporter – cell-based, luminescence, uHTS, primary screen (AID 1578); assay type: functional; conditions: Homo sapiens
# [8] = target: Tumor necrosis factor (Homo sapiens, UniProt P01375); experiment: analog potency on TNFa NF-kB signaling – cell-based, revised, SAR follow-up (AID 2337); assay type: functional
# [9] = tested on: Streptococcus sp. 'group A'; experiment: Streptococcus pyogenes SK(-)GAS viability under kanamycin – luminescence, BacTiterGlo, confirmation, counter-screen for streptokinase expression inhibitor project, dose response (AID 1900); assay type: functional, organism-based
# [10] = target: Eukaryotic translation initiation factor 4H (Homo sapiens, UniProt Q15056); experiment: eIF4H binding inhibition – biochemical, uHTS, fluorescence polarization, translation initiation inhibitor project, primary screen (AID 2012)
# [11] = target: Polyadenylate-binding protein 1 (Homo sapiens, UniProt P11940); experiment: blockers of PABP interaction with poly(A) – biochemical, fluorescence polarization, […] (AID 2014)
# [12] = tested on: Streptococcus; experiment: GAS UMAA2166 growth inhibition – luminescence, BacTiterGlo, counter-screen for streptokinase expression inhibitor project, dose response (AID 1915); assay type: functional, organism-based;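 note: potency for reduction of bacterial viability or growth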
# [13] = target: T2, Estrogen receptor (Homo sapiens, UniProt P03372); experiment: ERα coactivator recruitment enhancers – biochemical, TR-FRET, ERα LBD, dose response (AID 737)
# T2 sequence (P03372 whole entry): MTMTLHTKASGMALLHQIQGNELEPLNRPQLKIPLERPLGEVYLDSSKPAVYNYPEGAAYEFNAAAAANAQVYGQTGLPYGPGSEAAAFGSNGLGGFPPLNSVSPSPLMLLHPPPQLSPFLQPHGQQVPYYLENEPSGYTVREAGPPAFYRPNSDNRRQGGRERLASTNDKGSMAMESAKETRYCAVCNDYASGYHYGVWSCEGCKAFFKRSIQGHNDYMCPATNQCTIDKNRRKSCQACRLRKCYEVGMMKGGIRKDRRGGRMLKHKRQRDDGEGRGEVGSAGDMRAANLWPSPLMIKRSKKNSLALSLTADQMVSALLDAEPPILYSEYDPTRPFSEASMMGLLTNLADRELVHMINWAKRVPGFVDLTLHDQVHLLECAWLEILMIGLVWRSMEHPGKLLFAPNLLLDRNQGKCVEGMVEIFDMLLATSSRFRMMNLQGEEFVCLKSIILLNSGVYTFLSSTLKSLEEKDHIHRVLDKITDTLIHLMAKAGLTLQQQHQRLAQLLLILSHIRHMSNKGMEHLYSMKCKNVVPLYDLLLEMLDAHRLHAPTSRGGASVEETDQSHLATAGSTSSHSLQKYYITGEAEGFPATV
# [14] = target: Aminopeptidase N (Plasmodium falciparum FcB1/Columbia, UniProt O96935); experiment: malaria alanyl aminopeptidase activity blockers – biochemical, fluorogenic H-Leu-NHMec substrate, 1536-well (AID 1445); parameters: species or system Plasmodium falciparum 3D7, 3D7
# [15] = A High Throughput Confirmatory Assay used to Identify Novel Compounds that Inhibit Mycobacterium Tuberculosis in the absence of Glycerol.; assay type: functional
# [16] = tested on: Vero; experiment: viability of Vero cells under compound – cytotoxicity control for flavivirus capping enzyme inhibitors (AID 588742); assay type: functional; conditions: Chlorocebus sabaeus
# [17] = target: T3, Corticotropin-releasing factor receptor 2/Corticotropin-releasing factor-binding protein (Homo sapiens, UniProt P24387+Q13324); experiment: activators of CRF receptor 2 with binding protein – uHTS hits, confirmation (AID 602473); assay type: functional; conditions: read-out: EC50_Mean
# T3 sequence (Q13324 whole entry): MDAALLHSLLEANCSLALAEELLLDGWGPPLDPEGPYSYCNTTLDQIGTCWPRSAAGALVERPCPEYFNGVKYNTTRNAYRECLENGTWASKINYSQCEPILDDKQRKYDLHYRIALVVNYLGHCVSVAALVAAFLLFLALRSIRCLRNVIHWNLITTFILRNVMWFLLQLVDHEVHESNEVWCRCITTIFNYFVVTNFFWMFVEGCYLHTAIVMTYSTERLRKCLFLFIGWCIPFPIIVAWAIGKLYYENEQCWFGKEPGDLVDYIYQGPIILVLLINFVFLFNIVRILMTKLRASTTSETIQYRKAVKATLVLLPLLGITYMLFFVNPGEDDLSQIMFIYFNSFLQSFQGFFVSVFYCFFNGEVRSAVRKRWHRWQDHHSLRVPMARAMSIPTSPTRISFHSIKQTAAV
# T3 sequence (P24387 whole entry): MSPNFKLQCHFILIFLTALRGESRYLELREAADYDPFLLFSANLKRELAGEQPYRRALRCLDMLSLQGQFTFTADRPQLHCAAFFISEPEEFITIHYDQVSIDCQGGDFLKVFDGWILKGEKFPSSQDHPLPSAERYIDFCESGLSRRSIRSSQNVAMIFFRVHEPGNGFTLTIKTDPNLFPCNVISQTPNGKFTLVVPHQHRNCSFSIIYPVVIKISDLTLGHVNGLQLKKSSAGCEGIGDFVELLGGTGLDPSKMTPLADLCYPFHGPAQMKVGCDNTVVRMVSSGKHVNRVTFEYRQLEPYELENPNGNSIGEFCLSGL
# [18] = target: Hexokinase HKDC1 (Homo sapiens, UniProt Q2TB90); experiment: inhibition of HKDC1 glucose phosphorylation – biochemical, W721R variant, dose response (AID 504729); assay type: functional
# [19] = target: Genome polyprotein (dengue virus type 2, UniProt P29990); experiment: flavivirus cap methylation enzyme inhibition – biochemical, confirmation dose response, primary screen (AID 588689); assay type: functional
# [20] = target: T4, Alkaline phosphatase, tissue-nonspecific isozyme (Homo sapiens, UniProt P05186)
# T4 sequence (P05186 whole entry): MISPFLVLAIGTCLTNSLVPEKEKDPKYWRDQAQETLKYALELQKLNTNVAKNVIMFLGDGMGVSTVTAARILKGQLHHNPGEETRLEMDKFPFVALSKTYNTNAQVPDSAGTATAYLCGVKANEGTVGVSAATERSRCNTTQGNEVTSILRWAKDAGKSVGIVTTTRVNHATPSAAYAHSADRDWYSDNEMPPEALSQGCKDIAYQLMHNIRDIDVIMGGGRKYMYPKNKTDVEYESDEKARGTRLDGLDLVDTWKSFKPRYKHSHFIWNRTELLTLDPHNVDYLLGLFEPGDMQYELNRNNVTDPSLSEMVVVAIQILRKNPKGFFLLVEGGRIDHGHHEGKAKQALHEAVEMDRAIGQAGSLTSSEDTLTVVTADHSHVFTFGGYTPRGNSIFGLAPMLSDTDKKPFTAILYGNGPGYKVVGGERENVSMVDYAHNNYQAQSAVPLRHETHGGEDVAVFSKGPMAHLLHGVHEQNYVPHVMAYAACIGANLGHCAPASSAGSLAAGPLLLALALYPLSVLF
# [21] = target: T5, Heat shock factor protein 1 (Mus musculus, UniProt P38532); experiment: decrease of HSF1-responsive luciferase luminescence – cell-based, NIH3T3, dose retest, confirmation (AID 2382); assay type: functional;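 note: NIH3T3 fibroblasts with HSF1-driven luciferase reporter stressed by proteasome inhibitor MG132; luminescence from HSF1-driven luciferase expression after 8 hours of MG132 stress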
# T5 sequence (P38532 whole entry): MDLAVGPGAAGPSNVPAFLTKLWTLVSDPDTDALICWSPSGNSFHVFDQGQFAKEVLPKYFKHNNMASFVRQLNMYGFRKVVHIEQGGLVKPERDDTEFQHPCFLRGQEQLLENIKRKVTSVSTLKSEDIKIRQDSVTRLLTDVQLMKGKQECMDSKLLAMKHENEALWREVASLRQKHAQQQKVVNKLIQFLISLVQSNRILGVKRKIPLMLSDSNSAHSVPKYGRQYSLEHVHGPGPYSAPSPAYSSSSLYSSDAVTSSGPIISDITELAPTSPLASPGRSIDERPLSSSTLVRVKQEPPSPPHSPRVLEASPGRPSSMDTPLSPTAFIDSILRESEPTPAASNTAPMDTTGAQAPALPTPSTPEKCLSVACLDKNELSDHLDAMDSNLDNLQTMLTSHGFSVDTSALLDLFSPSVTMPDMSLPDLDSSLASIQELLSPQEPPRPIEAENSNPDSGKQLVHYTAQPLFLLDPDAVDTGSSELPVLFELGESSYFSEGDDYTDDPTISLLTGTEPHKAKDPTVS
# [22] = microbe, parasite or virus in culture; assay type: functional; conditions: Mycobacterium tuberculosis
# [23] = viability loss in THP-1 monocytes – THP-1 cells, cytotoxicity control for Vif-APOBEC3G degradation inhibitor project, dose response (AID 1117359); assay type: functional; conditions: THP-1
# [24] = target: T6, Protein Tat (Human immunodeficiency virus type 1 group M subtype B (isolate HXB2)(HIV-1), UniProt P04608); assay type: functional;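 note: tat binding to TAR RNA read out by fluorescence polarization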
# T6 sequence (P04608 whole entry): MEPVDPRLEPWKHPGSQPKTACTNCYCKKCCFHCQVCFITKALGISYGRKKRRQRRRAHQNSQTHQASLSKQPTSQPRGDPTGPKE
# Chain of Polyadenylate-binding protein 1 (P11940 whole entry): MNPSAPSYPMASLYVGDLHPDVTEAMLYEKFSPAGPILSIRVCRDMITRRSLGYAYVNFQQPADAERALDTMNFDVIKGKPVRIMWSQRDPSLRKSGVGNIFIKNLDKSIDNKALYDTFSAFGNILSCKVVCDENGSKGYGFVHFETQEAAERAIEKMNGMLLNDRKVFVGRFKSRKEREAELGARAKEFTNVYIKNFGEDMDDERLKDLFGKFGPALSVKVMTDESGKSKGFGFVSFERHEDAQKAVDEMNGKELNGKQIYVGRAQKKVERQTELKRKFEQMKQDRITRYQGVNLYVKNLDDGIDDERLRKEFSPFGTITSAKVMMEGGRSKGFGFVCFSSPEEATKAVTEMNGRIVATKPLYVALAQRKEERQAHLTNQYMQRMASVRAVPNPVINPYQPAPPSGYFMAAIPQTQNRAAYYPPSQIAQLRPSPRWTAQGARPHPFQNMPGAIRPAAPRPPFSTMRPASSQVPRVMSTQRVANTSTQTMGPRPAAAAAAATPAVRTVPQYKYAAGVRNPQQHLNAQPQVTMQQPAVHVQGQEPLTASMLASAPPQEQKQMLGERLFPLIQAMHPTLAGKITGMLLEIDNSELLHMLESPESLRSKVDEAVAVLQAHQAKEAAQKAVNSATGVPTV
# Chain of Aminopeptidase N (O96935 whole entry): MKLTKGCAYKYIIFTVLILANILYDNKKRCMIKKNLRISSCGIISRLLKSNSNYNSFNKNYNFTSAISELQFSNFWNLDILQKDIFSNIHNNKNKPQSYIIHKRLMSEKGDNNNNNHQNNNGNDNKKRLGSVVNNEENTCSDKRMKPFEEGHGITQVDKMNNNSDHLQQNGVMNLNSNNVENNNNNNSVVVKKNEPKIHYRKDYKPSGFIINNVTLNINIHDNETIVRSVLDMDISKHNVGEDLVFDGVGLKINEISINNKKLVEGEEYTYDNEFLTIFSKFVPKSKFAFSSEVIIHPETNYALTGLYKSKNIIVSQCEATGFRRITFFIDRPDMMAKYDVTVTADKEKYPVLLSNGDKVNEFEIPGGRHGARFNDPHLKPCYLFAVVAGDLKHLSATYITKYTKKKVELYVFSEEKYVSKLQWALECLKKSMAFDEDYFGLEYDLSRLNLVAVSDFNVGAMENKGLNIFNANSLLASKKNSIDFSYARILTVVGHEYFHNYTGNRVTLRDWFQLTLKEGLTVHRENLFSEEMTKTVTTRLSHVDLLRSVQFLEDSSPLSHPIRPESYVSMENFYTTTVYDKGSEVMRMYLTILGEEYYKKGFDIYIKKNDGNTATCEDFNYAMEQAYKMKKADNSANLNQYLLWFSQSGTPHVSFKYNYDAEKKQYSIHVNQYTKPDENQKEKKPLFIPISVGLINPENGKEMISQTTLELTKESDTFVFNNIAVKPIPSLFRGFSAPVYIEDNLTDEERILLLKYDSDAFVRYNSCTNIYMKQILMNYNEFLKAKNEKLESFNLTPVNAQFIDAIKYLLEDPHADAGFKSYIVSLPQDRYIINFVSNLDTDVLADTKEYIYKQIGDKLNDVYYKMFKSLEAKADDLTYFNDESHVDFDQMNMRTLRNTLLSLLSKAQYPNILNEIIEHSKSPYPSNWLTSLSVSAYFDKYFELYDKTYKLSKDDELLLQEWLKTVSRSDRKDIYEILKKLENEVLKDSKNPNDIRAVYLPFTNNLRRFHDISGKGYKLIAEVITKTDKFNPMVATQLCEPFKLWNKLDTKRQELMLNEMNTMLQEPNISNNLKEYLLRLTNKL
# Chain of Tumor necrosis factor (P01375 whole entry): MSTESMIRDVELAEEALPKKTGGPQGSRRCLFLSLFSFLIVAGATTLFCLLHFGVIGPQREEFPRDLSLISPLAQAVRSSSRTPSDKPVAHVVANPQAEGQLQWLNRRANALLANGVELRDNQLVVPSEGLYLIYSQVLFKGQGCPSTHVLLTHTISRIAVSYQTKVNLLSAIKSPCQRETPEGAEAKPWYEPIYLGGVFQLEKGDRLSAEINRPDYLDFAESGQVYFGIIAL
# Chain of Nucleotide-binding oligomerization domain-containing protein 2 (Q9HC29 whole entry, the tested form may be a part): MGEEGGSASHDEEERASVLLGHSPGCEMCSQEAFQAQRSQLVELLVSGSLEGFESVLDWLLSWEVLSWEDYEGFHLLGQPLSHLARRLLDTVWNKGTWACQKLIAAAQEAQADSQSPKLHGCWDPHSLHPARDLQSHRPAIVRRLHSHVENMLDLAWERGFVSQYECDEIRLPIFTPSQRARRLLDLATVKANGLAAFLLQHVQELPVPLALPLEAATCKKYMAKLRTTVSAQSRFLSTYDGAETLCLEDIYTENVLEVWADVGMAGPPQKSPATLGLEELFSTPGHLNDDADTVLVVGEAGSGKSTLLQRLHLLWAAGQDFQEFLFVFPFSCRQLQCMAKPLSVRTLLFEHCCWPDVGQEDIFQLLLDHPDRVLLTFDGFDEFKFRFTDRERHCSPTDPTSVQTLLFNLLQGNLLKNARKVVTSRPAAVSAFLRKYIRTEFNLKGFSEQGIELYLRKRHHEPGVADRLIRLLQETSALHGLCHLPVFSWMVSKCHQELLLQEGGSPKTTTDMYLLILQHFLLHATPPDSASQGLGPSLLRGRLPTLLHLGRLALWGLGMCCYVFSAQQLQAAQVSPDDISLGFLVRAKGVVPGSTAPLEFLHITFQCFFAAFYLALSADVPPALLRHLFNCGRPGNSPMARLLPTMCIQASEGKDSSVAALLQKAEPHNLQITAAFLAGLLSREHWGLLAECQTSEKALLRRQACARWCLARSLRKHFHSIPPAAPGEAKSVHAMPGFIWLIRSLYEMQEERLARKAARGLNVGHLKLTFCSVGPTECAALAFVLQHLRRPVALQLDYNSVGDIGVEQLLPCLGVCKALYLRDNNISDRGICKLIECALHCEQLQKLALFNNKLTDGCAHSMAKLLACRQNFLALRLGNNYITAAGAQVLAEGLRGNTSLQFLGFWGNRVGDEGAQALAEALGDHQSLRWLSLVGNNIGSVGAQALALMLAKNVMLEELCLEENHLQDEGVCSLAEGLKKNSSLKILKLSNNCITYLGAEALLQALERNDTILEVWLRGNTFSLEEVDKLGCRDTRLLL
# Chain of Genome polyprotein (P29990 2492-3391 limits assumed): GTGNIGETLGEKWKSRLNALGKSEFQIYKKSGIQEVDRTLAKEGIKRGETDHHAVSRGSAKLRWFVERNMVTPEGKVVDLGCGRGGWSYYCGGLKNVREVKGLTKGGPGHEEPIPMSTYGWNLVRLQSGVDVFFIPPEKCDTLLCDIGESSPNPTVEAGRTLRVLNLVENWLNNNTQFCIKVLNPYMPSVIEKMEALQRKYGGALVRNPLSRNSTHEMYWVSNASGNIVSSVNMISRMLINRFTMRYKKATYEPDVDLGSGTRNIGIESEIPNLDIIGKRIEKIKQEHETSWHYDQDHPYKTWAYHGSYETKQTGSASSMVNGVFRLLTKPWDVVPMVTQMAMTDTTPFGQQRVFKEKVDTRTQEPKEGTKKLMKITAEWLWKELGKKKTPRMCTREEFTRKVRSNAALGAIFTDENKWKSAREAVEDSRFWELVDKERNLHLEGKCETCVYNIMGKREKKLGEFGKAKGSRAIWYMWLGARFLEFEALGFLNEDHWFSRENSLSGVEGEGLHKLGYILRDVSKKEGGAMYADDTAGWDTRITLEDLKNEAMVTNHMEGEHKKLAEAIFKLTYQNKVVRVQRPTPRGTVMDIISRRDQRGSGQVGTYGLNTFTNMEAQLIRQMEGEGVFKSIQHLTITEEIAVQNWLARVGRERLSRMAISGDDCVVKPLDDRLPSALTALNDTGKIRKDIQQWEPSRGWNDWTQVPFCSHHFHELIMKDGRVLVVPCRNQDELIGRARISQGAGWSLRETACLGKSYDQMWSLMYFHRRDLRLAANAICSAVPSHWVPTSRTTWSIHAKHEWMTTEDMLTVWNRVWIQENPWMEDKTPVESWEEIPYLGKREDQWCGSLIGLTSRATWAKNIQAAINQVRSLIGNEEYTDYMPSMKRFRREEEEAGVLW
# Chain of Hexokinase HKDC1 (Q2TB90 whole entry): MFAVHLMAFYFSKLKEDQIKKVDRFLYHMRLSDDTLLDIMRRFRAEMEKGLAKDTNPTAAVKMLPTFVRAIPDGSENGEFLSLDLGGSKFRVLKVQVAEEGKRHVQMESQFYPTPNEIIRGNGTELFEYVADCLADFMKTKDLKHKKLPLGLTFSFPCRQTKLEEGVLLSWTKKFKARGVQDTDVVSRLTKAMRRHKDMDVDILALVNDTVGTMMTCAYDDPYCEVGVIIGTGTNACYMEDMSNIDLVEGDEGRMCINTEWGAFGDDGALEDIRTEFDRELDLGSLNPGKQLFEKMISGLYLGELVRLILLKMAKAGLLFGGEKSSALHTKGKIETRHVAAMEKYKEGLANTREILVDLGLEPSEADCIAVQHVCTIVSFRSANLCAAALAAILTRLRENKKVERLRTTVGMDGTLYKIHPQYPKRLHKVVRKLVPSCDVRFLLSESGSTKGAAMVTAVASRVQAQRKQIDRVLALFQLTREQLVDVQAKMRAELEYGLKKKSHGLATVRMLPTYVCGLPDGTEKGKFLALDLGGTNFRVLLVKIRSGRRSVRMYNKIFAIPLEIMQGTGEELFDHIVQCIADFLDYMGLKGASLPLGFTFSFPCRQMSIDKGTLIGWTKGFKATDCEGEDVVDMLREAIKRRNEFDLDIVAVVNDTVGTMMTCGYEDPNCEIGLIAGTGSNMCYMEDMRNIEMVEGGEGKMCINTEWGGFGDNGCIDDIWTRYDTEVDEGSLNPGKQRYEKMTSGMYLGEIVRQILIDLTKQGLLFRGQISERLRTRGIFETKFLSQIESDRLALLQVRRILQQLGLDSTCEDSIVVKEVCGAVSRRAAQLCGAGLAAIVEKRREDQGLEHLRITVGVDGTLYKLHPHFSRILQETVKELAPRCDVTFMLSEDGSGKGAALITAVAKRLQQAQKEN
compound,measurement,setting,value
C=CCN(c1ccccc1OC)S(=O)(=O)c1ccc(Cl)c(C(=O)Nc2ccc(N3CCOCC3)cc2)c1,IC50,[1],> 20 µM (inactive)
same,IC50,[2],14 µM (active)
same,IC50,[3],> 20 µM (inactive)
same,IC50,[4],14.4 µM (inactive)
same,IC50,[5],> 20 µM (inactive)
same,IC50,[6],10.4 µM (active)
same,EC50,[7],12 µM (active)
same,IC50,[8],13.2 µM (active)
CC(=O)NC(=S)Nc1ccc(NC(=S)NC(=O)/C=C/c2ccco2)cc1,EC50,[9],2.69 µM (active)
same,IC50,[10],36.7 µM (active)
same,IC50,[11],> 100 µM (inactive)
same,EC50,[12],5.33 µM (active)
O=C(Cn1c(=O)oc2cc(S(=O)(=O)N3CCCCCC3)ccc21)NC1CCCCC1,EC50,[13],12.9 µM (not active)
O=C(c1cnc2n(c1=O)CCS2)N(C1CCCCC1)C1CCCCC1,IC50,[14],149 µM (active)
O=C(Nc1nc2ccccc2n1Cc1ccc(Cl)cc1)c1cccs1,IC50,[2],> 20 µM (inactive)
same,IC50,[3],> 20 µM (inactive)
same,IC50,[6],> 20 µM (inactive)
same,IC50,[8],> 20 µM (inactive)
Cc1ccccc1N(C)S(=O)(=O)c1nnc(NC(=O)c2ccco2)s1,IC50,[10],25.9 µM (active)
same,IC50,[11],67.8 µM (active)
COCCOC(=O)c1ccc(NC(=O)COc2ccc([N+](=O)[O-])cc2)cc1,IC50,[15],> 100 µM (active)
Cc1ccc(-n2c3nc(=O)[nH]c(=O)c-3cc3cc([N+](=O)[O-])ccc32)cc1C,CC50,[16],29.7 µM (active)
same,EC50,[17],10 µM (active)
same,IC50,[18],6.47 µM (active)
same,IC50,[19],65.1 µM (active)
C=CCSC1=Nc2sccc2C2=NC(=O)CN12,EC50,[20],> 100 µM (not active)
same,EC50,[21],18.5 µM (active)
COc1ccccc1-c1nnc(SC/C(O)=C(\C#N)c2nc3ccccc3[nH]2)n1C1CCCCC1,IC50,[14],52.2 µM (active)
Oc1ccc2ccccc2c1C1Nc2cccc3cccc(c23)N1,CC50,[22],> 40 µM (active)
same,CC50,[23],> 40 µM (active)
same,IC50,[15],> 100 µM (active)
same,IC50,[24],41.7 µM (inconclusive)
O=C(Nc1ccccc1-c1ccccc1)NC1CC2CCCC(C1)N2CCc1ccccc1 (stereo not drawn),EC50,[20],51.2 µM (not active)

# From ChEMBL document CHEMBL1201862, “PubChem BioAssay data set” (2004)
